Results: patent US6063814A, “Phorbol esters as anti-neoplastic and white blood cell elevating agents” (priority 1997, dated 2000)

Tested on: HL-60 cells
Assay: TPA + low doses of Ara-C, HL-60 differentiation
Type: cell-based, human
Details: Ara-C alone, low dose 100 ng/ml
Source text: (2) TPA+Low Doses of Ara-C:

Nc1ccn([C@@H]2O[C@H](CO)[C@@H](O)[C@@H]2O)c(=O)n1 [Ara-C, cytarabine, reference compound]
HL-60 cell differentiation: could induce cell differentiation
